Data reported in ChEMBL document CHEMBL5523679, “Discovery of 1,2,3-triazole incorporated indole-piperazines as potent antitubercular agents: Design, synthesis, in vitro biological evaluation, molecular docking and ADME studies” (Bioorg Med Chem, 2024).
Values after ≈ are worked out from the molar mass of the structure shown.

How the values were obtained:
[1] = test system: Mycobacterium tuberculosis; assay: Antimycobacterial activity against Mycobacterium tuberculosis H37Rv assessed as bacterial growth inhibition by microplate Alamar blue assay; type: functional
Escherichia coli [2] = assay: Antibacterial activity against Escherichia coli assessed as inhibition zone at 75 ug/ml by diffusion method; type: functional; settings: read-out: IZ
Escherichia coli [3] = assay: Antibacterial activity against Escherichia coli assessed as inhibition zone at 50 ug/ml by diffusion method; type: functional; settings: read-out: IZ
Escherichia coli [4] = assay: Antibacterial activity against Escherichia coli assessed as inhibition zone at 25 ug/ml by diffusion method; type: functional; settings: read-out: IZ
Staphylococcus aureus [5] = assay: Antibacterial activity against Staphylococcus aureus assessed as inhibition zone at 75 ug/ml by diffusion method; type: functional; settings: read-out: IZ
Staphylococcus aureus [6] = assay: Antibacterial activity against Staphylococcus aureus assessed as inhibition zone at 50 ug/ml by diffusion method; type: functional; settings: read-out: IZ
Staphylococcus aureus [7] = assay: Antibacterial activity against Staphylococcus aureus assessed as inhibition zone at 25 ug/ml by diffusion method; type: functional; settings: read-out: IZ
Pseudomonas aeruginosa [8] = assay: Antibacterial activity against Pseudomonas aeruginosa assessed as inhibition zone at 75 ug/ml by diffusion method; type: functional; settings: read-out: IZ
Pseudomonas aeruginosa [9] = assay: Antibacterial activity against Pseudomonas aeruginosa assessed as inhibition zone at 50 ug/ml by diffusion method; type: functional; settings: read-out: IZ
Pseudomonas aeruginosa [10] = assay: Antibacterial activity against Pseudomonas aeruginosa assessed as inhibition zone at 25 ug/ml by diffusion method; type: functional; settings: read-out: IZ
[11] = Cytotoxicity against African green monkey Vero cells measured after 72 hrs by MTT assay; type: toxicity, cell-based; settings: chlorocebus sabaeus
[12] = Selectivity index, ratio of CC50 for African green monkey Vero cells to MIC for Mycobacterium tuberculosis H37Rv; type: toxicity; settings: read-out: Selectivity Index
[13] = Cytotoxicity against African green monkey Vero cells assessed as inhibition of cell growth at 6.25 ug/ml measured after 72 hrs by MTT assay relative to control; type: toxicity, cell-based; settings: chlorocebus sabaeus, at 6.25 µg/mL

Row | Structure (SMILES) | MIC [1] [µM] | zone of inhibition at 75 µg/mL (Escherichia coli [2]) [mm] | zone of inhibition at 50 µg/mL (Escherichia coli [3]) [mm] | zone of inhibition at 25 µg/mL (Escherichia coli [4]) [mm] | zone of inhibition at 75 µg/mL (Staphylococcus aureus [5]) [mm] | zone of inhibition at 50 µg/mL (Staphylococcus aureus [6]) [mm] | zone of inhibition at 25 µg/mL (Staphylococcus aureus [7]) [mm] | zone of inhibition at 75 µg/mL (Pseudomonas aeruginosa [8]) [mm] | zone of inhibition at 50 µg/mL (Pseudomonas aeruginosa [9]) [mm] | zone of inhibition at 25 µg/mL (Pseudomonas aeruginosa [10]) [mm] | CC50 at 72 h [11] [µg/mL] | selectivity ratio [12] | inhibition at 72 h, 6.25 ug/ml [13] [%]
1 | O=C(CCc1c[nH]c2ccccc12)N1CCN(S(=O)(=O)c2ccccc2)CC1 | > 120 | 15 | 12 | 10 | 20 | 15 | 12 | 15 | 10 | – | – | – | –
2 | O=C(CCc1c[nH]c2ccccc12)N1CCN(S(=O)(=O)c2ccc(F)cc2)CC1 | > 120 | 17 | 15 | 13 | 20 | 15 | 13 | 18 | 15 | 13 | – | – | –
3 | O=C(Cc1c[nH]c2ccccc12)N1CCN(S(=O)(=O)c2ccc(Cl)cc2)CC1 | 59.8 | 11 | 9 | 6 | 15 | 12 | 10 | 13 | 10 | – | – | – | –
4 | Cc1ccc(S(=O)(=O)N2CCN(C(=O)CCc3c[nH]c4ccccc34)CC2)cc1 | > 120 | 18 | 15 | 13 | 15 | 13 | 10 | 18 | 15 | 10 | – | – | –
5 | O=C(CCc1cn(Cc2ccc(F)cc2)c2ccccc12)N1CCN(C(=O)c2ccc(F)cc2)CC1 | 12.8 | 18 | 15 | – | 23 | 17 | 13 | 13 | – | – | 619 (≈ 1270 µM) | 198 | 31.9
6 | O=C(Cc1c[nH]c2ccccc12)N1CCN(S(=O)(=O)c2ccccc2)CC1 | > 120 | 17 | 15 | 13 | 18 | 15 | 13 | 18 | 15 | 13 | – | – | –
7 | Cc1ccc(C(=O)N2CCN(C(=O)Cc3cn(Cc4ccc(F)cc4)c4ccccc34)CC2)cc1 | 26.6 | 15 | 13 | – | 20 | 15 | 10 | 18 | 15 | 10 | – | – | –
8 | O=C(Cc1c[nH]c2ccccc12)N1CCN(C(=O)c2ccccc2)CC1 | > 120 | 12 | 9 | 6 | 15 | 12 | 10 | 13 | 9 | – | – | – | –
9 | Cc1ccc(S(=O)(=O)N2CCN(C(=O)Cc3c[nH]c4ccccc34)CC2)cc1 | > 120 | 18 | 15 | 12 | 15 | 12 | 10 | 15 | 13 | 10 | – | – | –
10 | Cc1ccc(C(=O)N2CCN(C(=O)CCc3cn(Cc4ccc(F)cc4)c4ccccc34)CC2)cc1 | 51.7 | 17 | 15 | – | 20 | 18 | 13 | 18 | 15 | 10 | – | – | –
11 | O=C(Cc1cn(Cc2ccc(F)cc2)c2ccccc12)N1CCN(S(=O)(=O)c2ccccc2)CC1 | 50.8 | 15 | 13 | – | 20 | 18 | 15 | 18 | 15 | 10 | – | – | –
12 | O=C(CCc1cn(Cc2cn(Cc3ccc(F)cc3)nn2)c2ccccc12)N1CCN(S(=O)(=O)c2ccccc2C(F)(F)F)CC1 | 38.2 | 20 | 22 | 15 | 20 | 12 | 10 | 12 | 10 | – | – | – | –
13 | Cc1ccc(S(=O)(=O)N2CCN(C(=O)CCc3cn(Cc4cn(Cc5ccc(F)cc5)nn4)c4ccccc34)CC2)cc1 | 20.8 | 20 | 20 | 15 | 20 | 15 | 12 | 15 | 13 | 9 | – | – | –
14 | O=C(CCc1cn(Cc2ccc(F)cc2)c2ccccc12)N1CCN(S(=O)(=O)c2ccccc2)CC1 | 49.4 | 14 | 12 | – | 20 | 18 | 15 | 18 | 15 | 10 | – | – | –
15 | O=C(CCc1cn(Cc2cn(Cc3ccc(F)cc3)nn2)c2ccccc12)N1CCN(S(=O)(=O)c2ccc(Cl)cc2)CC1 | 20.1 | 24 | 20 | 15 | 20 | 13 | 10 | 18 | 15 | 10 | – | – | –
16 | O=C(CCc1cn(Cc2cn(Cc3ccc(F)cc3)nn2)c2ccccc12)N1CCN(S(=O)(=O)c2ccc([N+](=O)[O-])cc2)CC1 | 39.6 | 20 | 18 | 15 | 20 | 12 | 6 | 12 | 10 | – | – | – | –
17 | O=C(O)c1cn(C2CC2)c2cc(N3CCNCC3)c(F)cc2c1=O [CIPROFLOXACIN] | – | 32 | 27 | – | 26 | 21 | 18 | 21 | 18 | 15 | – | – | –
